Laboratory results: patent publication EP0907632B1, “INHIBITION OF MATRIX METALLOPROTEASES BY SUBSTITUTED PHENETHYL COMPOUNDS” (Bayer Corporation, priority 1996, dated 1997)

Tests used:
MMP-9 = molecular target: T1, MMP-9 (Homo sapiens, UniProt P14780); type: biochemical; conditions: 6 µM P218 substrate, pH 6.5, 25 min at 37°C; calculated from IC50; read-out: MMP-9 Kf
T1 construct: made in house
Excerpt: (§1) The P218 quenched fluorescence assay (Microfluorometric Profiling Assay) is a modification of that originally described by Knight, et al., FEBS Lett. 296, 263, 1992 for a related substance and a variety of matrix metalloproteinases (MMPs) in cuvettes. The assay was run with each invention compound and the three MMPs, Mmp-3, MMP-9 and MMP-2, analyzed in parallel, adapted as follows for a 96-well microtiter plate and a Hamilton AT® workstation. P218 Fluorogenic Substrate: P218 is a synthetic substrate containing a 4-acetyl-7-methoxycoumarin (MCA) group in the N-terminal position and a 3-[2, 4-dinitrophenyl]-L-2,3-diaminopropionyl (DPA) group internally. This is a modification of a peptide reported by Knight (1992) that was used as a substrate for matrix metalloproteinases. Once the P218 peptide is cleaved (putative clip site at the Ala-Leu bond), the fluorescence of the MCA group can be detected on a fluorometer with excitation at 328 nm and emission at 393 nm. P218 is currently being produced BACHEM exclusively for Bayer. P218 has the structure: H-MCA-Pro-Lys-Pro-Leu-Ala-Leu-DPA-Ala-Arg-NH2 (MW 1332.2)
Recombinant Human Pro-MMP-9: Human pro-gelatinase B (pro-MMP-9) derived from U937 cDNA as described by Wilhelm, et al. J. Biol. Chem. 264, 17213, 1989 was expressed as the full-length form using a baculovirus protein expression system. The pro-enzyme was purified using methods previously described by Hibbs, et al. J. Biol. Chem. 260, 2493, 1984.
Activation of Pro-MMP-9: […] 20 µg/mL in 50 mM Tris at pH 7.4, 10mM CaCl2, 150 mM NaCl, and 0.005% Brij-35 (MMP-9 activation buffer) was activated by incubation with 0.5 mM p-aminophenylmercuric acetate (APMA) for 3.5 h at 37 °C. The enzyme was dialyzed against the same buffer to remove the APMA.
(§2) Hamiltion Microlab AT P!us: The MMP-Profiling Assay is performed robotically on a Hamilton MicroLab AT Plus®. The Hamilton is programmed to: (1) serially dilute up to 11 potential inhibitors automatically from a 2.5 mM stock in 100% DMSO; (2) distribute substrate followed by inhibitor into a 96 well Cytofluor plate; and (3) add a single enzyme to the plate with mixing to start the reaction. Subsequent plates for each additional enzyme are prepared automatically by beginning the program at the substrate addition point, remixing the diluted inhibitors and beginning the reaction by addition of enzyme. In this way, all MMP assays were done using the same inhibitor dilutions.
(§3) Millipore Cytofluor II. Following incubation, the plate was read on a Cytofluor II fluorometric place reader with excitation at 340 nm and emission at 395 nm with the gain set at 80.
(§4) Microfluorometric Reaction Buffer (MRB): Dilution of test compounds, enzymes, and P218 substrate for the microfluorometric assay were made in microfluorometric reaction buffer consisting of 50 mM 2-(N-morpholino)ethanesulfonic acid (MES) at pH 6.5 with 10 mM CaCl2, 150 mM NaCl, 0.005% Brij-35 and 1% DMSO.
(§5) MMP Microfluorometric Profiling Assay. The assay is done with a final substrate concentration of 6 µM P218 and approximately .5 to .8 nM MMP with variable drug concentrations. The Hamilton is programmed to serially dilute up to 11 compounds from a 2.5 mM stock (100% DMSO) to 10x the final compounds concentrations in the assay. Initially, the instrument delivers various amounts of microfluoromentric reaction buffer (MRB) to a 96 tube rack of 1 ml Marsh dilution tubes. The instrument then picks up 20 µl of inhibitor (2.5 mM) from the sample rack and mixes it with a buffer in row A of the Marsh rack, resulting in a 50 µM drug concentration. The inhibitors are then serially diluted to 10, 5, 1, .2, .05 and .01 µM. Position 1 on the sample rack contains only DMSO for the "enzyme-only" wells in the assay, which results in no inhibitor in column 1, rows A through H. The instrument then distributes 107 µl of P218 substrate (8.2 µM in MRB) to a single 96 well cytofluor microtiter plate. […]

MMP-2 = molecular target: T2, MMP-2 (Homo sapiens, UniProt P08253); assay: biochemical
T2 sequence (P08253 110-660): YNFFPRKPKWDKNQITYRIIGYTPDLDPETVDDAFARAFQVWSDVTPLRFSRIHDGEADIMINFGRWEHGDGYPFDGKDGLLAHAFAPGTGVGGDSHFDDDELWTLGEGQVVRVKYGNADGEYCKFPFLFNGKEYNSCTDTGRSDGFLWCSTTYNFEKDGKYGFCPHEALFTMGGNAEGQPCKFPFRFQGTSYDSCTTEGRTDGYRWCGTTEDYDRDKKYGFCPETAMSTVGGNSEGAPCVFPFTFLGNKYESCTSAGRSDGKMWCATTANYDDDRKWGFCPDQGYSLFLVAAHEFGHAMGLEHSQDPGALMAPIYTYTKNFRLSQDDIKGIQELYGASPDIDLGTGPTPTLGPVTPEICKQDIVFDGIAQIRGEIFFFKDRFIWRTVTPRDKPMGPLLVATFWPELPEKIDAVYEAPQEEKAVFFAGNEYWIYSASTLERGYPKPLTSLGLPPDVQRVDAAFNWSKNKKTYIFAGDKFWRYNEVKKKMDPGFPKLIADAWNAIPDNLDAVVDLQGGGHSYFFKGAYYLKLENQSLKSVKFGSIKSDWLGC

MMP-3 = molecular target: T3, MMP-3 (Homo sapiens, UniProt P08254); type: biochemical; conditions: 6 µM P218 substrate, pH 6.5, 25 min at 37°C; calculated from IC50; read-out: MMP-3 Kf
T3 construct: made in house; host or cells: CHO cells
Excerpt: as §1
Recombinant Human CHO Pro-MMP-3: Human CHO pro-stromelysin-257 (pro-MMP-3) was expressed and purified as described by Housley, et al., J. Biol. Chem. 268, 4481, 1993.
Activation of Pro-MMP-3 Pro-MMP-3 at 1.72 µM (100 µg/mL) in 5 mM Tris at pH 7.5, 5 mM CaCl2, 25 mM NaCl, and 0.005% Brij-35 (MMP-3 activation buffer) was activated by incubation with TPCK (N-tosyl-(L)-phenylalanine chloromethyl ketone) trypsin (1:100 w/w to pro-MMP-3) at 25 °C for 30 min. The reaction was stopped by addition of soybean trypsin inhibitor (SBTI: 5:1 w/w to trypsin concentration). This activation protocol results in the formation of 45 kDa active MMP-3, which still contains the C-terminal portion of the enzyme.
as §2, §3, §4, §5

T3 sequence (P08254 100-477): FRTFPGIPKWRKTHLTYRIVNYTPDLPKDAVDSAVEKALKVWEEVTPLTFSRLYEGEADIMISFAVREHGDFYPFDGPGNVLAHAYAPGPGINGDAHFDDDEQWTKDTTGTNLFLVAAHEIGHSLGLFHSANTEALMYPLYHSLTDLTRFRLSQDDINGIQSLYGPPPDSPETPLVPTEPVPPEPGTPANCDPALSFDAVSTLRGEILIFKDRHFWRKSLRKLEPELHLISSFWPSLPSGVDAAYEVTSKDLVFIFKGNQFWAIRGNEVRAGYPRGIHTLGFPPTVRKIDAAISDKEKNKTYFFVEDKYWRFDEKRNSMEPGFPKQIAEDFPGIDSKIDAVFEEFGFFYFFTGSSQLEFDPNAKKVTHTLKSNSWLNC
T1 sequence (P14780 107-707 limits assumed): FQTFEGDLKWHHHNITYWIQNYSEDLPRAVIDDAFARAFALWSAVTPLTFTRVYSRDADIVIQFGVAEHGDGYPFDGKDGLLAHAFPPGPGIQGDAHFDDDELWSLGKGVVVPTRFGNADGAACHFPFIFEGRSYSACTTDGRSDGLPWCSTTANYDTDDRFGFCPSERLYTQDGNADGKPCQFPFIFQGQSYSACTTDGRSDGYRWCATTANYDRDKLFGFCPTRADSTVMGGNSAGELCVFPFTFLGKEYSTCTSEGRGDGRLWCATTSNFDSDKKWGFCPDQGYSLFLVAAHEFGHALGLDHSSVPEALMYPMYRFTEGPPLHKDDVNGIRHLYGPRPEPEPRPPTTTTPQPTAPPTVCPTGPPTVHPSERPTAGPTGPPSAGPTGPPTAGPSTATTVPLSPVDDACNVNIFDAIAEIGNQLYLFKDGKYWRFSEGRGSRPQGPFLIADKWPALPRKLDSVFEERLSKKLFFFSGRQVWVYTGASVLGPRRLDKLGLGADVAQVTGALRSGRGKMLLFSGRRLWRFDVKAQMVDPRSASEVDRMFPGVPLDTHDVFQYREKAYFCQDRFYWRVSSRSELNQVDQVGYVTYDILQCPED

Compound | Ki (MMP-9) [nM] | Ki (MMP-2) [nM] | Ki (MMP-3) [nM]
CCCCCOc1ccc(-c2ccc(C(=O)CC(CCc3cccc(C(=O)N4CCCCC4)c3)C(=O)O)cc2)cc1 (stereo not drawn) [Compound XXXI, γ-oxo-4'-(pentyloxy)-α-[2-[3-(1-piperidinylcarbonyl)phenyl]ethyl]-[1,1'-biphenyl]-4-butanoic acid] | 373 | 17 | 35.8
CC(C)CCNC(=O)c1ccccc1CCC(CC(=O)c1ccc(-c2ccc(Cl)cc2)cc1)C(=O)O (stereo not drawn) [VI, 4'-chloro-α-[2-[2-[[(3-methylbutyl)amino]carbonyl]phenyl]ethyl]-γ-oxo-[1,1'-biphenyl]-4-butanoic acid] | 431 | 58.1 | 214
O=C(CC(CCc1ccccc1C(=O)NCc1ccccc1)C(=O)O)c1ccc(-c2ccc(Cl)cc2)cc1 (stereo not drawn) [III, 4'-chloro-γ-oxo-α-[2-[2-[[(phenylmethyl)amino]carbonyl]phenyl]ethyl]-[1,1'-biphenyl]-4-butanoic acid] | 475 | 60.3 | 174
O=C(CC(CCc1cccc(C(=O)NCCCc2ccccc2)c1)C(=O)O)c1ccc(-c2ccc(Cl)cc2)cc1 (stereo not drawn) [XIII, 4'-chloro-γ-oxo-α-[2-[3[[(3-phenylpropyl)amino]carbonyl]phenyl]ethyl]-[1,1'-biphenyl]-4-butanoic acid] | 552 | 157 | 236
O=C(CC(CCc1ccccc1C(=O)NCCCc1ccccc1)C(=O)O)c1ccc(-c2ccc(Cl)cc2)cc1 (stereo not drawn) [IV, 4'-chloro-γ-oxo-α-[2-[2-[[(3-phenylpropyl)amino]carbonyl]phenyl]ethyl]-[1,1'-biphenyl]-4-butanoic acid] | 246 | 68.7 | 175
O=C(CC(CCc1cccc(C(=O)N2CCCCC2)c1)C(=O)O)c1ccc(-c2ccc(OCc3ccccc3)cc2)cc1 (centres unmarked) [Compound XXX] | 102 | 4.44 | 12.5
O=C(CC(CCc1ccc(C(=O)NCCc2ccccc2)cc1)C(=O)O)c1ccc(-c2ccc(Cl)cc2)cc1 (stereo not drawn) [Compound XX, 4'-chloro-γ-oxo-α-[2-[4-[[(2-phenylethyl)amino]carbonyl]phenyl]ethyl]-[1,1'-biphenyl]-4-butanoic acid] | 2000 | 446 | 
O=C(O)CCNC(=O)c1ccccc1CCC(CC(=O)c1ccc(-c2ccc(Cl)cc2)cc1)C(=O)O (centres unmarked) [Compound XXII] | 1130 | 63.5 | 166
O=C(CC(CCc1cccc(C(=O)N2CCOCC2)c1)C(=O)O)c1ccc(-c2ccc(Cl)cc2)cc1 (stereo not drawn) [Compound X, 4'-chloro-α-[2-[3-(4-morpholinylcarbonyl)phenyl]ethyl]-γ-oxo-[1,1'-biphenyl]-4-butanoic acid] | 251 | 26.1 | 73.8
CC(C)CCNC(=O)c1cccc(CCC(CC(=O)c2ccc(-c3ccc(Cl)cc3)cc2)C(=O)O)c1 (stereo not drawn) [XIV, 4'-chloro-α-[2-[3-[[(3-methylbutyl)amino]carbonyl]phenyl]ethyl]-γ-oxo-[1,1'-biphenyl]-4-butanoic acid] | 707 | 110 | 308
O=C(O)CNC(=O)c1ccccc1CCC(CC(=O)c1ccc(-c2ccc(Cl)cc2)cc1)C(=O)O (stereo not drawn) [Compound XXIII, α-[2-[2-[[(2-carboxymethyl)amino]carbonyl]phenyl]ethyl]-4'-chloro-γ-oxo-[1,1'-biphenyl]-4-butanoic acid] | 1590 | 96 | 259
O=C(CC(CCc1cccc(C(=O)NCc2ccccc2)c1)C(=O)O)c1ccc(-c2ccc(Cl)cc2)cc1 (stereo not drawn) [XV, 4'-chloro-γ-oxo-α-[2-[3-[[(phenylmethyl)amino]carbonyl]phenyl]ethyl]-[1,1'-biphenyl]-4-butanoic acid] | 493 | 104 | 364
CCOC(=O)CN(C)C(=O)c1ccccc1CCC(CC(=O)c1ccc(-c2ccc(Cl)cc2)cc1)C(=O)O (stereo not drawn) [IX, 4'-chloro-α-[2-[2-[[(2-ethoxy-2-oxoethyl)methylamino]carbonyl]phenyl]ethyl]-γ-oxo-[1,1'-biphenyl]-4-butanoic acid] | 254 | 17.5 | 43.6
CC(C)CCNC(=O)c1ccc(CCC(CC(=O)c2ccc(-c3ccc(Cl)cc3)cc2)C(=O)O)cc1 (stereo not drawn) [XVIII, 4'-chloro-α-[2-[4-[[(3-methylbutyl)amino]carbonyl]phenyl]ethyl]-γ-oxo-[1,1'-biphenyl]-4-butanoic acid] | 452 | 137 | 677
O=C(CC(CCc1cccc(C(=O)NCCc2ccccc2)c1)C(=O)O)c1ccc(-c2ccc(Cl)cc2)cc1 (stereo not drawn) [XII, 4'-chloro-γ-oxo-α-[2-[3-[[(2-phenylethyl)amino]carbonyl]phenyl]ethyl]-[1,1'-biphenyl]-4-butanoic acid] | 2650 | 125 | 450
O=C(CC(CCc1ccccc1C(=O)N1CCCCC1)C(=O)O)c1ccc(-c2ccc(Cl)cc2)cc1 (stereo not drawn) [V, 4'-chloro-γ-oxo-α-[2-[2-(1-piperidinylcarbonyl)phenyl]ethyl]-[1,1'-biphenyl]-4-butanoic acid] | 146 | 13.8 | 54.7
O=C(CC(CCc1ccc(C(=O)N2CCCCC2)cc1)C(=O)O)c1ccc(-c2ccc(Cl)cc2)cc1 (stereo not drawn) [Compound XXI, 4'-chloro-γ-oxo-α-[2-[4-(1-piperidinylcarbonyl)phenyl]ethyl]-[1,1'-Biphenyl]-4-butanoic acid] | 806 | 84.1 | 242
